What was measured:
Type in all cases: in vivo
[1] = system: barnyardgrass (Echinochloa crus-galli); assay: Test B1 flooded paddy test, barnyardgrass; details: 250 g ai/ha, Flood, applied to paddy water, 2-leaf stage, visually evaluated after 10 to 14 days
Excerpt: (§1) A dash (-) response means no test result.

[2] = system: ragweed (common ragweed, Ambrosia artemisiifolia); assay: Test A1 preemergence, ragweed
Procedure, shortened: (§2)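 Pre: seeds in loam/sand blend, directed soil spray. Post: potted plants, same soil, 2–10 cm, 1–2 leaf stage. Chemicals in non-phytotoxic solvent + surfactant for both.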

[3] = system: goosegrass (Eleusine indica); assay: Test A1 preemergence, goosegrass
Procedure, shortened: as §2

soybean (Glycine max) [4] = assay: Test A1 postemergence, soybean; details: for Plant response rating, Soybean: Postemergence
Procedure, shortened: (§3)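 Test compounds were formulated in a non-phytotoxic solvent mixture containing a surfactant. For preemergence, seeds sown in a loam soil–sand blend received a directed soil spray. For postemergence, potted plants in the same soil, 2 to 10 cm tall at the one- to two-leaf stage, were sprayed.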

corn (Zea mays) [5] = assay: Test A1 postemergence, corn; details: Postemergence
Procedure, shortened: as §2

soybean (Glycine max) [6] = assay: Test A1 preemergence, soybean
Procedure, shortened: as §2

[7] = system: galium (catchweed bedstraw, Galium aparine); assay: Test A1 postemergence, galium; details: for Plant response rating, Galium: Postemergence
Procedure, shortened: as §3

[8] = system: wheat (Triticum aestivum); assay: Test A1 preemergence, wheat
Procedure, shortened: as §2

[9] = system: Foxtail, Giant (giant foxtail, Setaria faberi); assay: Test A1 postemergence, Foxtail, Giant; details: for Plant response rating, Foxtail, Giant: Postemergence
Procedure, shortened: as §3

[10] = system: Foxtail, Giant (giant foxtail, Setaria faberi); assay: Test A1 preemergence, Foxtail, Giant
Procedure, shortened: as §2

[11] = system: Pigweed, Palmer (palmer amaranth, palmer pigweed, Amaranthus palmeri); assay: Test A1 postemergence, Pigweed, Palmer; details: for Plant response rating, Pigweed, Palmer: Postemergence
Procedure, shortened: (§4)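 Herbicidal response was scored on plants treated either preemergence, by directed spray onto soil of a loam–sand blend after sowing, or postemergence on potted plants at the one- to two-leaf stage, 2–10 cm high. Test chemicals were carried in a non-phytotoxic solvent mix with surfactant.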

kochia (Bassia scoparia) [12] = assay: Test A1 preemergence, kochia
Procedure, shortened: as §2

[13] = system: Ryegrass, Italian (Italian ryegrass, Lolium multiflorum); assay: Test A1 postemergence, Ryegrass, Italian; details: for Plant response rating, Ryegrass, Italian: Postemergence
Procedure, shortened: as §3

[14] = system: goosegrass (Eleusine indica); assay: Test A1 postemergence, goosegrass; details: for Plant response rating, Goosegrass: Postemergence
Procedure, shortened: as §3

[15] = system: ragweed (common ragweed, Ambrosia artemisiifolia); assay: Test A1 postemergence, ragweed; details: for Plant response rating, Ragweed: Postemergence
Procedure, shortened: as §4

rice (Oryza sativa) = assay: Test B1 flooded paddy test, rice; details: 250 g ai/ha, Flood, applied to paddy water, 2-leaf stage, visually evaluated after 10 to 14 days
Excerpt: as §1

kochia (Bassia scoparia) [16] = assay: Test A1 postemergence, kochia; details: for Plant response rating, Kochia: Postemergence
Procedure, shortened: as §3

[17] = system: Ryegrass, Italian (Italian ryegrass, Lolium multiflorum); assay: Test A1 preemergence, Ryegrass, Italian
Procedure, shortened: as §2

[18] = system: horseweed (Erigeron canadensis); assay: Test A1 postemergence, horseweed; details: Postemergence
Procedure, shortened: as §3

[19] = system: Oat, Wild (wild oat, Avena fatua); assay: Test A1 preemergence, Oat, Wild
Procedure, shortened: as §2

[20] = system: blackgrass (Alopecurus myosuroides); assay: Test A1 postemergence, blackgrass; details: Postemergence, 0 to 100 scale (0 no effect, 100 complete control)
Procedure, shortened: as §3

[21] = system: ducksalad (Heteranthera limosa); assay: Test B1 flooded paddy test, ducksalad; details: 250 g ai/ha, Flood, applied to paddy water, 2-leaf stage, visually evaluated after 10 to 14 days
Excerpt: as §1

[22] = system: blackgrass (Alopecurus myosuroides); assay: Test A1 preemergence, blackgrass
Procedure, shortened: as §2

[23] = system: Oat, Wild (wild oat, Avena fatua); assay: Test A1 postemergence, Oat, Wild; details: for Plant response rating, Oat, Wild: Postemergence
Procedure, shortened: as §4

[24] = system: wheat (Triticum aestivum); assay: Test A1 postemergence, wheat; details: for Plant response rating, Wheat: Postemergence
Procedure, shortened: as §3

[25] = system: Pigweed, Palmer (palmer amaranth, palmer pigweed, Amaranthus palmeri); assay: Test A1 preemergence, Pigweed, Palmer
Procedure, shortened: as §2

corn (Zea mays) [26] = assay: Test A1 preemergence, corn
Procedure, shortened: as §4

[27] = 31 g ai/ha, 0 to 100 scale (0 no effect, 100 complete control)
[28] = 125 g ai/ha, 0 to 100 scale, 0 no effect, 100 complete control
[29] = 31 g ai/ha, 0 to 100 scale (0 no effect, 100 complete control), 10 days
[30] = 31 g ai/ha, postemergence, 0 to 100 scale (0 no effect, 100 complete control)

Cc1c(C(=O)N2CCC(F)(F)CC2)cc(N(COC(=O)C(C)(C)C)S(=O)(=O)C(F)(F)F)c(C)c1C [Compound 360]
90: Plant response rating, Goosegrass [3, 28] | Plant response rating, Ragweed ([15]; 125 g ai/ha, 0 to 100 scale)
25: Plant response rating, Rice (0 to 100 scale, 0 is no effect, 100 is complete control) (rice (Oryza sativa))
10: Plant response rating, Wheat [8, 28] | Plant response rating, Horseweed [18, 29]
95: Plant response rating, Barnyardgrass (0 to 100 scale, 0 is no effect, 100 is complete control) [1]
20: Plant response rating, Soybean (soybean (Glycine max) [4]; [29]) | Plant response rating, Pigweed, Palmer [11, 29]
80: Plant response rating, Ragweed [2, 28]
65: Plant response rating, Ducksalad (0 to 100 scale, 0 is no effect, 100 is complete control) [21]
40: Plant response rating, Soybean (soybean (Glycine max) [4]; 125 g ai/ha, 0 to 100 scale) | Plant response rating, Foxtail, Giant [10, 28] | Plant response rating, Pigweed, Palmer ([11]; 125 g ai/ha, 0 to 100 scale) | Plant response rating, Goosegrass ([14]; 125 g ai/ha, 0 to 100 scale) | Plant response rating, Pigweed, Palmer [25, 28]
0: Plant response rating, Goosegrass [3, 27] | Plant response rating, Corn (corn (Zea mays) [5]; [29]) | Plant response rating, Corn (corn (Zea mays) [5]; 125 g ai/ha, 0 to 100 scale) | Plant response rating, Soybean (soybean (Glycine max) [6]; [27]) | Plant response rating, Soybean (soybean (Glycine max) [6]; [28]) | Plant response rating, Wheat [8, 27] | Plant response rating, Foxtail, Giant [9, 29] | Plant response rating, Foxtail, Giant ([9]; 125 g ai/ha, 0 to 100 scale) | Plant response rating, Foxtail, Giant [10, 27] | Plant response rating, Kochia (kochia (Bassia scoparia) [12]; [27]) | Plant response rating, Ryegrass, Italian [13, 29] | Plant response rating, Ryegrass, Italian ([13]; 125 g ai/ha, 0 to 100 scale) | Plant response rating, Goosegrass [14, 29] | Plant response rating, Ryegrass, Italian [17, 27] | Plant response rating, Oat, Wild [19, 27] | Plant response rating, Oat, Wild [19, 28] | Plant response rating, Blackgrass ([20]; 31 g ai/ha, 10 days) | Plant response rating, Blackgrass ([20]; 125 g ai/ha) | Plant response rating, Blackgrass [22, 27] | Plant response rating, Blackgrass [22, 28] | Plant response rating, Oat, Wild [23, 29] | Plant response rating, Oat, Wild ([23]; 125 g ai/ha, 0 to 100 scale) | Plant response rating, Wheat [24, 29] | Plant response rating, Wheat ([24]; 125 g ai/ha, 0 to 100 scale) | Plant response rating, Pigweed, Palmer [25, 27] | Plant response rating, Corn (corn (Zea mays) [26]; [27]) | Plant response rating, Corn (corn (Zea mays) [26]; [28])
100: Plant response rating, Galium ([7]; 125 g ai/ha, 0 to 100 scale)
70: Plant response rating, Ragweed [15, 29] | Plant response rating, Horseweed ([18]; 125 g ai/ha, 0 to 100 scale)
60: Plant response rating, Ragweed [2, 27]
30: Plant response rating, Kochia (kochia (Bassia scoparia) [12]; [28]) | Plant response rating, Kochia (kochia (Bassia scoparia) [16]; [29]) | Plant response rating, Ryegrass, Italian [17, 28]
50: Plant response rating, Galium [7, 29] | Plant response rating, Kochia (kochia (Bassia scoparia) [16]; 125 g ai/ha, 0 to 100 scale)

CCC1CC(c2cc(NS(=O)(=O)C(F)(F)F)c(C)cc2C)=NO1 (centres unmarked) [Compound 375]
0: Plant response rating, Ragweed [2, 27] | Plant response rating, Corn (corn (Zea mays) [5]; [29]) | Plant response rating, Corn (corn (Zea mays) [5]; 125 g ai/ha, 0 to 100 scale) | Plant response rating, Soybean (soybean (Glycine max) [6]; [27]) | Plant response rating, Wheat [8, 27] | Foxtail, Giant plant response rating [9, 30] | Pigweed, Palmer plant response rating [11, 30] | Plant response rating, Kochia (kochia (Bassia scoparia) [12]; [27]) | Ryegrass, Italian plant response rating [13, 30] | Ragweed plant response rating [15, 30] | Kochia plant response rating (kochia (Bassia scoparia) [16]; [30]) | Plant response rating, Oat, Wild [19, 27] | Plant response rating, Blackgrass ([20]; 31 g ai/ha, 10 days) | Plant response rating, Blackgrass ([20]; 125 g ai/ha) | Oat, Wild plant response rating [23, 30] | Plant response rating, Oat, Wild ([23]; 125 g ai/ha, 0 to 100 scale) | Wheat plant response rating [24, 30] | Plant response rating, Pigweed, Palmer [25, 27] | Plant response rating, Corn (corn (Zea mays) [26]; [27])
60: Plant response rating, Soybean (soybean (Glycine max) [4]; 125 g ai/ha, 0 to 100 scale) | Plant response rating, Kochia (kochia (Bassia scoparia) [16]; 125 g ai/ha, 0 to 100 scale) | Plant response rating, Ducksalad (0 to 100 scale, 0 is no effect, 100 is complete control) [21]
90: Plant response rating, Foxtail, Giant [10, 28] | Plant response rating, Goosegrass ([14]; 125 g ai/ha, 0 to 100 scale)
50: Plant response rating, Barnyardgrass (0 to 100 scale, 0 is no effect, 100 is complete control) [1] | Goosegrass plant response rating [14, 30] | Plant response rating, Ragweed ([15]; 125 g ai/ha, 0 to 100 scale) | Plant response rating, Horseweed ([18]; 125 g ai/ha, 0 to 100 scale) | Plant response rating, Blackgrass [22, 28]
70: Plant response rating, Goosegrass [3, 27] | Plant response rating, Kochia (kochia (Bassia scoparia) [12]; [28]) | Plant response rating, Wheat ([24]; 125 g ai/ha, 0 to 100 scale) | Plant response rating, Corn (corn (Zea mays) [26]; [28])
10: Galium plant response rating [7, 30] | Plant response rating, Foxtail, Giant ([9]; 125 g ai/ha, 0 to 100 scale) | Plant response rating, Foxtail, Giant [10, 27]
80: Plant response rating, Ryegrass, Italian [17, 28] | Plant response rating, Pigweed, Palmer [25, 28]
40: Plant response rating, Ryegrass, Italian ([13]; 125 g ai/ha, 0 to 100 scale)
30: Soybean plant response rating (soybean (Glycine max) [4]; [30]) | Plant response rating, Soybean (soybean (Glycine max) [6]; [28]) | Plant response rating, Ryegrass, Italian [17, 27]
15: Plant response rating, Rice (0 to 100 scale, 0 is no effect, 100 is complete control) (rice (Oryza sativa))
100: Plant response rating, Goosegrass [3, 28] | Plant response rating, Wheat [8, 28]
20: Plant response rating, Ragweed [2, 28] | Plant response rating, Galium ([7]; 125 g ai/ha, 0 to 100 scale) | Plant response rating, Pigweed, Palmer ([11]; 125 g ai/ha, 0 to 100 scale) | Plant response rating, Oat, Wild [19, 28] | Plant response rating, Blackgrass [22, 27]

Reference: patent publication US20230278972A1, “SUBSTITUTED HALOALKYL SULFONANILIDE HERBICIDES” (FMC Corporation, priority 2020, published 2023)
